Values quoted from earlier work, collected in US20250041228A1, “ORAL FORMULATION OF A PYRIDINONE DERIVATE AND USE THEREOF IN PROPHYLAXIS AND/OR TREATMENT OF INTESTINAL FIBROSIS” (Dr. Falk Pharma GmbH, priority 2021, published 2025).

Molecular target: T1, transglutaminase 2 (Homo sapiens, UniProt P21980)
T1 sequence (P21980 1-687): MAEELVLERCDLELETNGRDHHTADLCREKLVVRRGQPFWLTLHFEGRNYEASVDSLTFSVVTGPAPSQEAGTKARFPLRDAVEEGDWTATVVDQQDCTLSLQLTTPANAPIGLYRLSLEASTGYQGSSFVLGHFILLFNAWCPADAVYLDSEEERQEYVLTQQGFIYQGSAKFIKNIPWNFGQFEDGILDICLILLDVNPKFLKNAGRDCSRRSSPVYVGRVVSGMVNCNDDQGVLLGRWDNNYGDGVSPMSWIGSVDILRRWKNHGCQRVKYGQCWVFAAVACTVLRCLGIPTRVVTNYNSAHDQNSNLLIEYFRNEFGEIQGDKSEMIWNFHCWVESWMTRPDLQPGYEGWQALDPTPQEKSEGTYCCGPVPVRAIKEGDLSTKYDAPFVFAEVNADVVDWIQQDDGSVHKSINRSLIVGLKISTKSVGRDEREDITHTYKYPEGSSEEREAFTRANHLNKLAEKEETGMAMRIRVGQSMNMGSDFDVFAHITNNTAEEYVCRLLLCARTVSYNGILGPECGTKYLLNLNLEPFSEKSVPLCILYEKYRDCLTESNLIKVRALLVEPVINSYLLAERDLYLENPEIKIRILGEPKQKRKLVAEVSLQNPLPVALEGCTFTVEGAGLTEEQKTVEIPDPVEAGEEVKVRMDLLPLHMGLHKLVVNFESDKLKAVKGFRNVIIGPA
Details: background statement, no data

Q: For `CCC(CC)CNC(=O)Cn1cccc(NC(=O)[C@H](CC/C=C/C(=O)OC)NC(=O)c2cncn2C)c1=O` [Compound 1, (S,E)-methyl-7-(1-(2-(2-ethylbutylamino)-2-oxoethyl)-2-oxo-1,2-dihydro-pyridin-3-ylamino)-6-(1-methyl-1H-imidazole-5-carboxamido)-7-oxohept-2-enoate], which “inhibitor against transglutaminase 2” value is on record?
A: Its value is “effective inhibitor”.
